Patent US20230159509A1 (Amathus Therapeutics, Inc., priority 2020, published 2023)

target: T1, TRAP1 enzyme (Homo sapiens, UniProt Q12931); experiment: ADP Glo assay of TRAP1 ATPase activity; type: biochemical; conditions: 1 h; compound concentration 50 μM; read-out: ADP-Glo Percent Activation at 50 μM
T1 construct: 150 nM Trap1 enzyme was incubated with various concentrations of the test compound
T1 sequence (Q12931 60-704): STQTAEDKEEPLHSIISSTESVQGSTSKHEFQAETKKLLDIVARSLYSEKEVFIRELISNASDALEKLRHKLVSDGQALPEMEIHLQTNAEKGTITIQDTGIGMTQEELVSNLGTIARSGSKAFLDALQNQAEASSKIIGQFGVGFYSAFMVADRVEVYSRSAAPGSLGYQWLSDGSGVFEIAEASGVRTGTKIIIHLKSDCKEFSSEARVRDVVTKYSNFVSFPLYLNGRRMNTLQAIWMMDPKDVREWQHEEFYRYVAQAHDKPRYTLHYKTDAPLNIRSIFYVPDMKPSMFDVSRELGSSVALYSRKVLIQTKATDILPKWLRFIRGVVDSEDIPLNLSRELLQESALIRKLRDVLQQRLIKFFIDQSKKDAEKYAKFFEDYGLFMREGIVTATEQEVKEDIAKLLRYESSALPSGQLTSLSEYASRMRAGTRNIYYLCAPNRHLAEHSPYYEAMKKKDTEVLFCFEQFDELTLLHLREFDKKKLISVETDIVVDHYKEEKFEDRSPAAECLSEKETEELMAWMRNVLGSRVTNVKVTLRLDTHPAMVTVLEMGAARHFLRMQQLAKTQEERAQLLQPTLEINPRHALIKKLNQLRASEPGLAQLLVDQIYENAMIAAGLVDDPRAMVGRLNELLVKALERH
In short: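 ADP-Glo luminescence quantifying ADP from 150 nM TRAP1 preincubated 30 min at 37° C with compound (0.79–100 μM), then 20 μM ATP for 60 min at 37° C. Buffer: 25 mM Pipes pH 7.5, 40 mM KCl, 0.05 mM MgCl2, EGTA, BSA, detergents. ADP from ATP/ADP standard curve; Emax and EC50 from sigmoidal fit.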

activation at 50 µM [%]	SMILES
151 to 180	COc1ncc(NC(=O)c2ccc(CNC(C)=O)cc2)cc1S(=O)(=O)Nc1c(C)cccc1C [compound 2682]
120 to 150	COc1ncc(NC(=O)c2csc(C(F)(F)F)c2)cc1S(=O)(=O)Nc1c(C)cccc1C [compound 2683]
120 to 150	COc1ncc(NC(=O)c2cnn(CC(F)(F)F)c2)cc1S(=O)(=O)Nc1c(C)cccc1C [compound 2684]
151 to 180	COc1ncc(NC(=O)c2nsnc2Cl)cc1S(=O)(=O)Nc1c(C)cccc1C [compound 2687]
151 to 180	COc1ncc(NC(=O)c2ccc(NC(C)=O)c(C)c2)cc1S(=O)(=O)Nc1c(C)cccc1C [compound 2688]
181 to 352	COc1ncc(NC(=O)c2cc(C(C)C)on2)cc1S(=O)(=O)Nc1c(C)cccc1C [compound 2689]
151 to 180	CCc1cc(C(=O)Nc2cnc(OC)c(S(=O)(=O)Nc3c(C)cccc3C)c2)no1 [compound 2690]
181 to 352	CCn1nc(C(=O)Nc2cnc(OC)c(S(=O)(=O)Nc3c(C)cccc3C)c2)cc1C [compound 2691]
120 to 150	COc1ncc(NC(=O)c2nc(C)oc2C)cc1S(=O)(=O)Nc1c(C)cccc1C [compound 2692]
120 to 150	COc1ncc(NC(=O)c2onc3c2CCCC3)cc1S(=O)(=O)Nc1c(C)cccc1C [compound 2693]
181 to 352	COc1ncc(NC(=O)c2sccc2C(F)(F)F)cc1S(=O)(=O)Nc1c(C)cccc1C [compound 2694]
151 to 180	COc1ncc(NC(=O)c2cc(C(F)(F)F)n[nH]2)cc1S(=O)(=O)Nc1c(C)cccc1C [compound 2695]
181 to 352	COc1ncc(NC(=O)c2cccc(NC(C)=O)c2)cc1S(=O)(=O)Nc1c(C)cccc1C [compound 2696]
181 to 352	COc1ncc(NC(=O)c2coc(C(C)C)n2)cc1S(=O)(=O)Nc1c(C)cccc1C [compound 2697]
151 to 180	COc1ncc(NC(=O)c2ccc(NC(=O)C(C)(C)C)cc2)cc1S(=O)(=O)Nc1c(C)cccc1C [compound 2699]
181 to 352	COc1ncc(NC(=O)c2cnn(C3CCCCC3)c2)cc1S(=O)(=O)Nc1c(C)cccc1C [compound 2700]
181 to 352	COc1ncc(NC(=O)c2n[nH]c3c2CCC3)cc1S(=O)(=O)Nc1c(C)cccc1C [compound 2701]
120 to 150	COc1ncc(NC(=O)c2csnc2C)cc1S(=O)(=O)Nc1c(C)cccc1C [compound 2703]
120 to 150	COc1ncc(NC(=O)c2conc2C)cc1S(=O)(=O)Nc1c(C)cccc1C [compound 2706]
120 to 150	COc1ncc(NC(=O)c2oncc2C)cc1S(=O)(=O)Nc1c(C)cccc1C [compound 2708]
120 to 150	COc1ncc(NC(=O)c2ccn[nH]2)cc1S(=O)(=O)Nc1c(C)cccc1C [compound 2709]
181 to 352	COc1ncc(NC(=O)c2nn(C)c(C)c2Cl)cc1S(=O)(=O)Nc1c(C)cccc1C [compound 2710]
120 to 150	CCc1oncc1C(=O)Nc1cnc(OC)c(S(=O)(=O)Nc2c(C)cccc2C)c1 [compound 2711]
120 to 150	COc1ncc(NC(=O)c2ncco2)cc1S(=O)(=O)Nc1c(C)cccc1C [compound 2712]
181 to 352	COc1ncc(NC(=O)c2cnn(C)c2C(F)F)cc1S(=O)(=O)Nc1c(C)cccc1C [compound 2713]
181 to 352	CCCc1nnsc1C(=O)Nc1cnc(OC)c(S(=O)(=O)Nc2c(C)cccc2C)c1 [compound 2714]
120 to 150	COc1ncc(NC(=O)c2cccc(CN3CCN(C)CC3)c2)cc1S(=O)(=O)Nc1c(C)cccc1C [compound 2715]

activation at 50 µM [%]	SMILES
181 to 352	COc1ncc(NC(=O)c2cc(C)sn2)cc1S(=O)(=O)Nc1c(C)cccc1C [compound 2716]
151 to 180	COc1ncc(NC(=O)c2ncoc2C)cc1S(=O)(=O)Nc1c(C)cccc1C [compound 2718]
151 to 180	COc1ncc(NC(=O)c2cccc3c2C(=O)NC3)cc1S(=O)(=O)Nc1c(C)cccc1C [compound 2719]
181 to 352	COc1ncc(NC(=O)c2snnc2C2CC2)cc1S(=O)(=O)Nc1c(C)cccc1C [compound 2720]
120 to 150	COc1ncc(NC(=O)c2cn[nH]c2C)cc1S(=O)(=O)Nc1c(C)cccc1C [compound 2724]
181 to 352	COc1ncc(NC(=O)c2noc3c2CCCC3)cc1S(=O)(=O)Nc1c(C)cccc1C [compound 2725]
181 to 352	CCCc1onc(C)c1C(=O)Nc1cnc(OC)c(S(=O)(=O)Nc2c(C)cccc2C)c1 [compound 2726]
181 to 352	COc1ncc(NC(=O)c2ccc3c(c2)NC(=O)C3)cc1S(=O)(=O)Nc1c(C)cccc1C [compound 2727]
181 to 352	COc1ncc(NC(=O)c2ccnc(N3CCCCC3)c2)cc1S(=O)(=O)Nc1c(C)cccc1C [compound 2729]
181 to 352	COc1ncc(NC(=O)c2cc(Cl)n[nH]2)cc1S(=O)(=O)Nc1c(C)cccc1C [compound 2730]
120 to 150	COc1ncc(NC(=O)c2[nH]cnc2C)cc1S(=O)(=O)Nc1c(C)cccc1C [compound 2731]
151 to 180	COc1ncc(NC(=O)c2cc3[nH]c(=O)[nH]c(=O)n3c2)cc1S(=O)(=O)Nc1c(C)cccc1C [compound 2732]
151 to 180	COc1ncc(NC(=O)c2ocnc2C)cc1S(=O)(=O)Nc1c(C)cccc1C [compound 2733]
181 to 352	COc1ncc(NC(=O)c2nnsc2C(C)C)cc1S(=O)(=O)Nc1c(C)cccc1C [compound 2734]
181 to 352	COc1ncc(NC(=O)c2cc[nH]c3nccc2-3)cc1S(=O)(=O)Nc1c(C)cccc1C [compound 2735]
181 to 352	COc1ncc(NC(=O)c2n[nH]c3c2CCCC3)cc1S(=O)(=O)Nc1c(C)cccc1C [compound 2736]
120 to 150	COc1ncc(NC(=O)c2cnc(N(C)C)nc2)cc1S(=O)(=O)Nc1c(C)cccc1C [compound 2737]
151 to 180	COc1ncc(NC(=O)c2cc(C)on2)cc1S(=O)(=O)Nc1c(C)cccc1C [compound 2738]
181 to 352	COc1ncc(NC(=O)c2cnn3c2SCC3)cc1S(=O)(=O)Nc1c(C)cccc1C [compound 2740]
120 to 150	COc1ncc(NC(=O)c2ccon2)cc1S(=O)(=O)Nc1c(C)cccc1C [compound 2741]
181 to 352	COc1ncc(NC(=O)c2ccc(N3CCN(C)CC3)c(F)c2)cc1S(=O)(=O)Nc1c(C)cccc1C [compound 2742]
151 to 180	COc1ncc(NC(=O)c2coc(C3CCCCC3)n2)cc1S(=O)(=O)Nc1c(C)cccc1C [compound 2743]
181 to 352	COc1ncc(NC(=O)c2ccnc(N3CCOCC3)c2)cc1S(=O)(=O)Nc1c(C)cccc1C [compound 2744]
151 to 180	COc1ncc(NC(=O)c2ccc(C3CCN(C)CC3)cc2)cc1S(=O)(=O)Nc1c(C)cccc1C [compound 2745]
181 to 352	COc1ncc(NC(=O)c2ccc(NC(C)=O)cc2)cc1S(=O)(=O)Nc1c(C)cccc1C [compound 2746]
151 to 180	COc1ncc(NC(=O)c2cc(OC)n(C)n2)cc1S(=O)(=O)Nc1c(C)cccc1C [compound 2747]
151 to 180	COc1ncc(NC(=O)c2cc(C)[nH]n2)cc1S(=O)(=O)Nc1c(C)cccc1C [compound 2749]
